According to patent US9796733B2, “Imidazo-pyrazine derivatives useful as soluble guanylate cyclase activators” (Merck Sharp & Dohme Corp., priority 2014, dated 2017):

How the values were obtained:
[1] = system: Spontaneously hypertensive rats (SHR); experiment: Acute efficacy in spontaneously hypertensive rats (SHR): telemetry blood pressure lowering after a single oral dose; format: in vivo, rat
Method in brief: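 Male SHR carrying aortic telemetry implants (14-day recovery) received a single oral gavage of compound or vehicle (10% transcutol/20% Cremophor/70% water). Conscious blood pressure was sampled 30 s every 10 min and averaged hourly; change was taken against the prior-day vehicle baseline, reported as maximum peak SBP decrease at a given PO dose (mpk).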

sGC α1/β1 heterodimer = molecular target: T1, sGC α1/β1 heterodimer (Homo sapiens, UniProt Q02108+Q02153); experiment: Cell-based sGC functional assay (CASA assay): cGMP generation in CHO-K1/sGC cells, HTRF detection; conditions: for Emax: CHO-K1, percent activation relative to standard Compound A in CHO-K1/sGC cells, read-out: % Act.; for EC50: inflection point (IP) of cGMP generation in CHO-K1/sGC cells, 4P fit, activity expressed as percentage of Compound A
T1 construct: expressed in transfected cells; host or cells: CHO-K1 (clone #7, CHO-K1/sGC)
T1 sequence (Q02108 1-690): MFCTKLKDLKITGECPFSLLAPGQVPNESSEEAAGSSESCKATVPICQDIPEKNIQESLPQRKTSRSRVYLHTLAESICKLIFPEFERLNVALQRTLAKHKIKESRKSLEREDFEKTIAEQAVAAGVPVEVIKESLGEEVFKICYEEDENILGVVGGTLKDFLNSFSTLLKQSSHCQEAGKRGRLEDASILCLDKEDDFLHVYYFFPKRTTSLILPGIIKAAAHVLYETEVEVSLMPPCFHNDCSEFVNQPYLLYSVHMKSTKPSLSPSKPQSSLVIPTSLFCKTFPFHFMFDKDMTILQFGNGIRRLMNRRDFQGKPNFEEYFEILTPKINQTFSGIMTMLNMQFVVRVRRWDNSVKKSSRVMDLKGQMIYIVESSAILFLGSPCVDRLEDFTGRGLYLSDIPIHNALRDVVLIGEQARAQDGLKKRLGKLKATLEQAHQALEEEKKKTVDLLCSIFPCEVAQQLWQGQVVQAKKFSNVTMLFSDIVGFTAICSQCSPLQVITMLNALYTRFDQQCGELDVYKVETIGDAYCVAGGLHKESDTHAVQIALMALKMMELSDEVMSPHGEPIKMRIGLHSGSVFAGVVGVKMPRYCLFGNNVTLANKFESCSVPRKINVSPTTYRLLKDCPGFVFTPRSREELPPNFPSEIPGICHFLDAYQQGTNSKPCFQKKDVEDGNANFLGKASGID
T1 sequence (Q02153 1-619): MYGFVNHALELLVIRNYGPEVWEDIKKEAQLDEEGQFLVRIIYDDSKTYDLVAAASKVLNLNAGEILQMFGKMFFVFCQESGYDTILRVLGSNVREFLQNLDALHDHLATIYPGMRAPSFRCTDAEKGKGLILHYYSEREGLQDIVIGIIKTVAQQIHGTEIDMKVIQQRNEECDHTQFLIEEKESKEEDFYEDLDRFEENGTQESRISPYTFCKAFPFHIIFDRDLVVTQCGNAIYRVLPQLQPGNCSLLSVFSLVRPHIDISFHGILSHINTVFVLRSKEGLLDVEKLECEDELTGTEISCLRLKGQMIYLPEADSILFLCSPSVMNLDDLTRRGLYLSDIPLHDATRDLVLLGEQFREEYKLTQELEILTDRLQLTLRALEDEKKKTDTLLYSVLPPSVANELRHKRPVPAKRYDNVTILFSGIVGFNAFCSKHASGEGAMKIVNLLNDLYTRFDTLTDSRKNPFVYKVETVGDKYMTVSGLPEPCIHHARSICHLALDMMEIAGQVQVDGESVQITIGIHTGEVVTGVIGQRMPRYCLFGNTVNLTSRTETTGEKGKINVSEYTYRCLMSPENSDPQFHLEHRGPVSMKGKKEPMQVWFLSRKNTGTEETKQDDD
Method in brief: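 Stable CHO-K1/sGC cells in EBSS buffer with 5 mM MgCl2, 0.05% BSA and 0.5 mM IBMX were incubated with compound (2.5% DMSO final) ±1 μM DETA-NO for 1 hr at 37° C. cGMP was measured by HTRF. Activation is expressed as % of reference HDA Compound A maximum, with IP and max fold induction from a 4P fit.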

| SMILES | Maximum peak decrease of systolic blood pressure (SBP) in SHR, Cat. ([1]; P.O. 1.0 mpk) | Emax (sGC α1/β1 heterodimer) | EC50 (sGC α1/β1 heterodimer) | Maximum peak decrease of systolic blood pressure (SBP) in SHR, Cat. ([1]; P.O. 3.0 mpk) | Maximum peak decrease of systolic blood pressure (SBP) in SHR, Cat. ([1]; P.O. 0.3 mpk) |
| --- | --- | --- | --- | --- | --- |
| CCCc1nc(-c2nc(N)c3c(n2)NC(=O)C3(c2ccc(Cl)c(F)c2)C2CC2)cn2ccnc12 (stereo not drawn) [Example 327A, 4-amino-5-(4-chloro-3-fluorophenyl)-5-cyclopropyl-2-(8-propylimidazo[1,2-a]pyrazin-6-yl)-5H-pyrrolo[2,3-d]pyrimidin-6(7H)-one] | A (Category A=SBP in SHRs<20 mmHg) | 112% | 0.134 µM | – | – |
| CCC1(c2ccc(F)cn2)C(=O)Nc2nc(-c3cn4ccnc4c(CCC(F)(F)C(F)(F)F)n3)nc(N)c21 (stereo not drawn) [Example 249A, 4-amino-5-ethyl-5-(5-fluoropyridin-2-yl)-2-(8-(3,3,4,4,4-pentafluorobutyl)imidazo [1,2-a]pyrazin-6-yl)-5H-pyrrolo[2,3-d]pyrimidin-6(7H)-one] | – | 96% | 0.759 µM | B (Category B=SBP in SHRs 20-40 mmHg) | – |
| CC1(c2ccc(F)cc2)C(=O)Nc2nc(-c3cn4cc(C5CC5)nc4c(CCC(F)(F)C(F)(F)F)n3)nc(N)c21 (stereo not drawn) [Example 157A, 4-amino-2-(2-cyclopropyl-8-(3,3,4,4,4-pentafluorobutyl)imidazo [1,2-a]pyrazin-6-yl)-5-(4-fluorophenyl)-5-methyl-5H-pyrrolo[2,3-d]pyrimidin-6(7H)-one] | – | 90% | 0.227 µM | B (Category B=SBP in SHRs 20-40 mmHg) | – |
| CCCCc1nc(-c2nc(N)c3c(n2)NC(=O)C3(C)c2ccc(C(F)(F)F)cn2)cn2cc(C)nc12 (stereo not drawn) [Example 166B, 4-amino-2-(8-butyl-2-methylimidazo[1,2-a]pyrazin-6-yl)-5-methyl-5-(5-(trifluoromethyl)pyridin-2-yl)-5H-pyrrolo[2,3-d]pyrimidin-6(7H)-one] | A (Category A=SBP in SHRs<20 mmHg) | 94% | 0.12 µM | – | – |
| CC1(c2nnc(C3CC3)s2)C(=O)Nc2nc(-c3cn4ccnc4c(CCC(F)(F)C(F)(F)F)n3)nc(N)c21 (stereo not drawn) [Example 59A, 4-amino-5-(5-cyclopropyl-1,3,4-thiadiazol-2-yl)-5-methyl-2-(8-(3,3,4,4,4-pentafluorobutyl)imidazo[1,2-a]pyrazin-6-yl)-5H-pyrrolo[2,3-d]pyrimidin-6(7H)-one] | A (Category A=SBP in SHRs<20 mmHg) | 97% | 0.067 µM | – | – |
| CCCCc1nc(-c2nc(N)c3c(n2)NC(=O)C3(c2ccc(Cl)c(F)c2)C2CC2)cn2ccnc12 (stereo not drawn) [Example 329A, 4-amino-2-(8-butylimidazo[1,2-a]pyrazin-6-yl)-5-(4-chloro-3-fluorophenyl)-5-cyclopropyl-5H-pyrrolo[2,3-d]pyrimidin-6(7H)-one] | – | 93% | 0.016 µM | – | B (Category B=SBP in SHRs 20-40 mmHg) |
| CCC1(c2ccc(Cl)cc2)C(=O)Nc2nc(-c3cn4ccnc4c(CCCC(F)(F)F)n3)nc(N)c21 (stereo not drawn) [Example 209B, 4-amino-5-(4-chlorophenyl)-5-ethyl-2-(8-(4,4,4-trifluorobutyl)imidazo[1,2-a]pyrazin-6-yl)-5H-pyrrolo[2,3-d]pyrimidin-6(7H)-one] | – | 111% | 0.049 µM | – | B (Category B=SBP in SHRs 20-40 mmHg) |
| CCCc1nc(-c2nc(N)c3c(n2)NC(=O)C3(c2ccc(F)c(F)c2)C2CC2)cn2ccnc12 (stereo not drawn) [Example 334A, 4-amino-5-cyclopropyl-5-(3,4-difluorophenyl)-2-(8-propylimidazo[1,2-a]pyrazin-6-yl)-5H-pyrrolo[2,3-d]pyrimidin-6(7H)-one] | – | 111% | 0.278 µM | A (Category A=SBP in SHRs<20 mmHg) | – |
| Nc1nc(-c2cn3ccnc3c(CCC(F)(F)C(F)(F)F)n2)nc2c1C(c1ccc(Cl)cn1)(C1CC1)C(=O)N2 (stereo not drawn) [Example 245B, 4-amino-5-(5-chloropyridin-2-yl)-5-cyclopropyl-2-(8-(3,3,4,4,4-pentafluorobutyl)imidazo [1,2-a]pyrazin-6-yl)-5H-pyrrolo[2,3-d]pyrimidin-6(7H)-one] | C (Category C=SBP in SHRs>40 mmHg) | 118% | 0.077 µM | – | – |
| Nc1nc(-c2cn3ccnc3c(CCC(F)(F)F)n2)nc2c1C(c1ccc(Cl)cn1)(C1CC1)C(=O)N2 (single isomer, unassigned) [Example 331B, 4-amino-5-(5-chloropyridin-2-yl)-5-cyclopropyl-2-(8-(3,3,3-trifluoropropyl)imidazo[1,2-a]pyrazin-6-yl)-5H-pyrrolo[2,3-d]pyrimidin-6(7H)-one] | – | 157% | 1.31 µM | B (Category B=SBP in SHRs 20-40 mmHg) | – |
| CCc1nc(-c2nc(N)c3c(n2)NC(=O)C3(C)c2ccc(Cl)cc2)cn2ccnc12 (single isomer, unassigned) [Example 1A, 4-Amino-5-(4-chlorophenyl)-2-(8-ethylimidazo[1,2-a]pyrazin-6-yl)-5-methyl-5H-pyrrolo[2,3-d]pyrimidin-6(7H)-one] | B (Category B=SBP in SHRs 20-40 mmHg) | 124% | 0.894 µM | – | – |
| CCc1nc(-c2nc(N)c3c(n2)NC(=O)C3(C)c2ccc(Cl)c(F)c2)cn2ccnc12 (stereo not drawn) [Example 314B, 4-amino-5-(4-chloro-3-fluorophenyl)-2-(8-ethylimidazo[1,2-a]pyrazin-6-yl)-5-methyl-5H-pyrrolo[2,3-d]pyrimidin-6(7H)-one] | – | 104% | 0.434 µM | B (Category B=SBP in SHRs 20-40 mmHg) | – |
| CC1(c2ccc(F)cc2)C(=O)Nc2nc(-c3cn4ccnc4c(-c4ccccc4)n3)nc(N)c21 (stereo not drawn) [Example 112A, 4-amino-5-(4-fluorophenyl)-5-methyl-2-(8-phenylimidazo[1,2-a]pyrazin-6-yl)-5H-pyrrolo[2,3-d]pyrimidin-6(7H)-one] | – | 89% | 0.289 µM | B (Category B=SBP in SHRs 20-40 mmHg) | – |
| Nc1nc(-c2cn3ccnc3c(CCC(F)(F)F)n2)nc2c1C(c1ccc(OC(F)(F)F)cc1)(C1CC1)C(=O)N2 (stereo not drawn) [Example 328A, 4-amino-5-cyclopropyl-5-(4-(trifluoromethoxy)phenyl)-2-(8-(3,3,3-trifluoropropyl)imidazo[1,2-a]pyrazin-6-yl)-5H-pyrrolo[2,3-d]pyrimidin-6(7H)-one] | – | 106% | 1.04 µM | A (Category A=SBP in SHRs<20 mmHg) | – |
| CCCCc1nc(-c2nc(N)c3c(n2)NC(=O)C3(c2cccc(C(F)(F)F)n2)C2CC2)cn2ccnc12 (single isomer, unassigned) [Example 355A, 4-amino-2-(8-butylimidazo[1,2-a]pyrazin-6-yl)-5-cyclopropyl-5-(6-(trifluoromethyl)pyridin-2-yl)-5H-pyrrolo[2,3-d]pyrimidin-6(7H)-one] | A (Category A=SBP in SHRs<20 mmHg) | 126% | 0.202 µM | – | – |
| CC(C)c1ccc(C2(C)C(=O)Nc3nc(-c4cn5ccnc5c(CCC(F)(F)C(F)(F)F)n4)nc(N)c32)cn1 (stereo not drawn) [Example 251B, 4-amino-5-(6-isopropylpyridin-3-yl)-5-methyl-2-(8-(3,3,4,4,4-pentafluorobutyl)imidazo [1,2-a]pyrazin-6-yl)-5H-pyrrolo[2,3-d]pyrimidin-6(7H)-one] | – | 85% | 0.1 µM | B (Category B=SBP in SHRs 20-40 mmHg) | – |
